Where no end group is shown, it is not given here.
Tests used:
[1] = system: bladder afferents of CVH mice; assay: Ex-vivo afferent recordings from bladder pelvic afferents during ramp distension; assay type: in vivo, C57/BL6 mice; conditions: vs vehicle
Description: (§1) Male C57 BL/6 mice were used in all experiments. Colitis was induced by administration of TNBS as described previously (Brierley et al., (2011) J. Physiol, 15: 3575-3593, incorporated herein by reference in its entirety). Briefly, 13-week-old mice were administered an intra-colonic enema of 0.1 mL TNBS (130 μg/mL in 30% EtOH) via a polyethylene catheter inserted 3 cm from the anus of isoflurane anaesthetized mice. Mice were then individually housed and observed daily for changes in body weight, physical appearance and behavior. Histological examination of mucosal architecture, cellular infiltrate, crypt abscesses, and goblet cell depletion confirmed TNBS-induced significant damage by day 3-post treatment, largely recovered by day 7 and fully recovered at the day 28-time point (Brierley et al., (2008) Gastroenterology, 134: 2059-69, incorporated herein by reference). High-threshold nociceptors from mice at the 28 day time point display significant mechanical hypersensitivity, lower mechanical activation thresholds and display hyperalgesia and allodynia. As such, they are therefore termed ‘chronic visceral hypersensitivity’ (CVH) mice.
Pelvic bladder afferents are classified by their ability to respond to urinary bladder ramp distension. During bladder distension there is an increase in intravesical pressure and a corresponding increase in the afferent neuron activity. The mechanosensitivity of these afferents was tested in bladder preparations from healthy and CVH mice as well as CVH mice that received either a 2 week treatment of once daily oral gavage of vehicle or of linaclotide (3 μg/kg/day) by ramp distension to a final intravesical pressure of 30 mmHg.
Recordings were made from healthy and CVH mice, which had been chronically administered either vehicle or linaclotide (3 μg/kg/day) for a total duration to 2 weeks, and which were euthanized via CO2 inhalation and cervical dislocation. The animal was cut in two at the level of L2, removing vascular connections via the aorta and vena cava, yet ensuring the kidneys and ureters remained intact. […]

[2] = system: bladder afferents and detrusor smooth muscle of CVH mice; assay: Exogenous chemical stimulation of bladder afferents and bladder muscle (carbachol, αβMe-ATP, capsaicin); assay type: in vivo, C57/BL6 mice; conditions: vs vehicle
Description: as §1
The chemosensitivity of bladder afferents was also tested following isolation of pelvic afferents and catheterisation of the bladder described above. Following an equilibration period, when bladder afferent responses to ramp distension are stable, the bladder was distended to a physiological pressure of 6 mmHg above baseline. At this point, the saline perfusion is stopped but the outflow tap remains closed as to maintain the volume in the bladder. The bladder is maintained in this state to accommodate the increase in volume for 45 minutes whilst the baseline intravesical pressure and afferent firing stabilize.
Following the equilibration period, the bath perfusion is briefly turned off and a bolus dose of agonist is applied. Carbachol (1 μM), αβMe-ATP (30 μM), and capsaicin (10 μM) were applied in series with a 1 hr washout period between each dose.
Chemosensitive responses were measured as the number of action potentials crossing a pre-set threshold at a given time following agonist administration. The intravesical pressure was determined as the change from baseline pressure at a given time following agonist administration.
Data are expressed as mean with the SEM, and n is the number of animals. Data were analyzed using unpaired t-test to determine significance when comparing single points or a two-way analysis of variance (ANOVA) when comparing between experimental groups throughout a ramp distension or exogenous agonist protocol. Differences were considered significant at P<0.05. […] Muscle compliance is calculated by plotting intravesical pressure against intravesical volume, which is in turn determined from the time taken to distend to a particular pressure.
Whole nerve multifiber afferent nerve activity was quantified using the spike 2 software, which counted the number of action potentials crossing a pre-set threshold. Data are expressed as mean±SEM. n indicates the number of individual animals. Data were analyzed using Prism 5 software (GraphPad Software, San Diego, Calif., USA) where appropriate, un-paired t-tests were used, or two-way analysis of variance (ANOVA) followed by posthoc tests. Differences were considered significant at a level of *P<0.05, **P<0.01 and ***P<0.001.

[3] = system: retrogradely traced bladder thoracolumbar (TL) DRG neurons; assay: Patch clamp recordings from retrogradely traced bladder DRG neurons; assay type: in vivo, C57/BL6 mice; conditions: TL DRG neurons from CVH mice, once daily oral gavage for 2 weeks, vs vehicle
Description: Laparotomy was performed on anaesthetized (2-3% isofluorane/0.3 L/min O2) mice. […]; ThermoFisher product nr. C22842 (former LifeTechnologies)) was used for subserosal injection (2-3 ul per injection) in descending colon or dorsal and lateral bladder using a 30G Hamilton needle. Incision was closed with Prolene 6/0 suture (Johnson&Johnson product nr. 8636G). All mice were given 100 ul of buprenorphine (1:12) and Baytril (1:20) for post-operative care and left for 4 days before humanely killed for DRG cell culture.
Recordings were made from healthy and CVH mice. CVH mice received chronic administration of either vehicle or linaclotide (3 μg/kg/day) for a total duration of 2 weeks. Mice were euthanized via CO2 inhalation and DRGs from thoracolumbar (T10-L1) and lumbosacral (L6-S1) regions removed and digested with 3 mg mL−1 collagenase II (Gibco) and 4 mg mL−1 dispase (Gibco) for 30 min at 37° C., followed by 3 mg mL−1 collagenase II only for 10 min at 37° C. […]
Recordings were made similarly to those we have described previously (Brierley et al., 2011, ibid). […] Signals were amplified by using an Axopatch 200A amplifier, digitized with a Digidata 1322A and recorded using pCLAMP 9 software (Molecular Devices, Sunnyvale, Calif., USA). […] In current clamp studies a series of depolarizing pulses (500 ms, 10 pA step) were applied from a holding potential ([…]) and the rheobase (or amount of current (pA) required for action potential generation) determined. The number of action potentials at rheobase and 2× rheobase was also determined and the resting membrane potential was noted. […]
Action potentials were recorded in current clamp mode and the rheobase, or the amount of injected current (pA) required to elicit an action potential determined. The numbers of action potentials at rheobase and 2× rheobase were also recorded as well as noting the resting membrane potential. Data were analyzed using Prism 5 software (GraphPad Software, San Diego, Calif., USA) where appropriate, un-paired t-tests or one-way analysis of variance (ANOVA) followed by posthoc tests. […]

[4] = human volunteers; cited from earlier work

For “CCEYCCNPACTGCY (cysteine pairing not given here) [linaclotide]”, the “afferent nerve activity over the time course of ramp distension” value ([1]; once daily oral gavage 3 μg/kg/day for 2 weeks, FIG. 2A, P≤0.001) was “significant decrease”, the “peak afferent response to distension” value ([1]; once daily oral gavage 3 μg/kg/day for 2 weeks, FIG. 2B, P≤0.05) was “significant decrease” and the bladder compliance ([1]; once daily oral gavage for 2 weeks, FIG. 2C) was “no change”. The “bladder afferent response to capsaicin” value ([2]; capsaicin 10 μM, once daily oral gavage for 2 weeks, p≤0.01) was “significantly reduced”, the “bladder contraction response to carbachol” value ([2]; carbachol 1 μM, once daily dosing for 2 weeks) was “significantly reduced” and the “bladder afferent response to carbachol” value ([2]; carbachol 1 μM, once daily oral gavage for 2 weeks, p≤0.001) was “significantly reduced”. The “bladder contraction response to αβMe-ATP” value ([2]; αβMe-ATP 30 μM, once daily dosing for 2 weeks) was “significantly reduced”, the “bladder afferent response to αβMe-ATP” value ([2]; αβMe-ATP 30 μM, once daily oral gavage for 2 weeks, p≤0.001) was “significantly reduced” and the resting membrane potential [3] was “no effect”. For the same sequence, the “number of action potentials at 2× rheobase” value ([3]; p=0.02) was “significantly decreases”, the rheobase ([3]; p=0.02) was “significantly increases” and the “oral dose found in feces” value [4] was “about 5%”.

— US20220202725A1, “Modified or Targeted Release Formulations of Linaclotide” (Ironwood Pharmaceuticals, Inc., priority 2015, published 2022)
